Test system: CCRF-CEM cancer cells - leukaemia
Experiment: Fluorometric Microculture Cytotoxicity Assay (FMCA), CCRF-CEM
Assay type: cell-based
Conditions: Homo sapiens, 72 h incubation
Excerpt: The Fluorometric Microculture Cytotoxicity Assay, FMCA, is a three day non-clonogenic microplate-based cell viability assay used for measurement of the cytotoxic and/or cytostatic effect of compounds in vitro (Lindhagen, E., et al. Nat Protoc, 2008. 3(8): p. 1364-9). FMCA (Larsson, R. and P. Nygren, Anticancer Res, 1989. 9(4): p. 1111-9) represents a valuable method to measure cytotoxicity in a number of cell types, both cell lines and primary cells from patients (Larsson, R., et al., Int J Cancer, 1992. 50(2): p. 177-85; Fridborg, H., et al., Eur J Cancer, 1999. 35(3): p. 424-32; Dhar, S., et al., Br J Cancer, 1996. 74(6): p. 888-96).
FMCA is based on the principle that fluorescein diacetate (FDA) is converted to the fluorescent probe fluorescein by esterases in the plasma membranes of living cells. For experiments, 96 or 384-well microplates are prepared with compounds and stored at −70° C. until use. Cells are then seeded into the drug-prepared plates and placed in an incubator for 72 h. On the last day of incubation, the plates are washed and a buffer containing FDA is added and incubated with the cells for 45 minutes. Finally the fluorescence per well is measured in a fluorometer and a Survival Index % (SI) for each compound-treated well is calculated with the equation: Compound-treated cells minus blank divided by control cells minus blank. A high SI-value indicates a large percentage of living cells and vice versa.
In subsequent experiments, compounds were tested, along with kinase inhibitors (dasatinib, pazopanib, sorafenib, and sunitinib) as described above. Initially, the acute lymphoblastic leukaemia cell line CCRF-CEM (see e.g. Foley G E, et al. Cancer 1965, 18, 522-529) was used throughout. In the assay plates, medium was added to six empty wells (blank wells) and wells were filled with PBS and cell suspension and served as control wells. SI-values were then calculated for each compound-treated well as described above. All experiments were conducted twice and a new batch of plates was prepared for each experiment.
For dose-response experiments, 384-well plates were prepared as follows:
Compounds of the invention as well as kinase inhibitors sorafenib, sunitinib, dasatinib, and pazopanib (reference compounds) were diluted with PBS to a concentration which was ten-times higher than the desired starting concentration. Then, a Biomek 2000 liquid handling system was employed to serially dilute the compounds in a deep-well 384-well plate. From this plate, assay plates containing 5 μl compound per well were prepared with the Biomek 2000. Certain compounds precipitated when diluted with PBS, and these compounds were therefore prepared in a 96-well plate manually as described above using culture medium RPMI 1640 instead of PBS.
The compounds were also tested at five concentrations, with five times serial dilution on the following cell types: CCRF-CEM, hTERT-RPE1 (normal retinal epithelial cells), hRPTEpiC (normal renal cells) and PBMC (peripheral blood mononuclear cells). Each experiment was performed three times, except for PBMC and hRPTEpiC, which were performed twice. SI-values were calculated, graphs were plotted using GraphPadPrism 5.0 (GraphPad Software Inc. La Jolla, Calif.) and EC50-values for each cell type and compound were determined from the curves.

Structure (SMILES) | EC50 [µM]
Cc1cc2cc(Nc3nc(NCc4ccc5[nH]ccc5c4)cc(C(F)(F)F)n3)ccc2[nH]1 [Example 33, N^4-(1H-indol-5-ylmethyl)-N^2-(2-methyl-1H-indol-5-yl)-6-trifluoromethylpyrimidine-2,4-diamine] | 9.55
FC(F)(F)c1cc(NCc2ccc3[nH]ccc3c2)nc(NCCc2c[nH]c3ccccc23)n1 [Example 35, N^2-(2-(1H-indol-3-yl)ethyl)-N^4-(1H-indol-5-ylmethyl)-6-trifluoromethylpyrimidine-2,4-diamine] | 10.1
Nc1cnc(Nc2cccc3[nH]ccc23)nc1NCc1ccc2[nH]ccc2c1 [Example 38, N^4-(1H-indol-5-ylmethyl)-N^2-(1H-indol-4-yl)pyrimidine-2,4,5-triamine] | 4.33
Nc1cnc(Nc2ccc3[nH]ccc3c2)nc1NCc1ccc2[nH]ccc2c1 [Example 39, N^4-(1H-indol-5-ylmethyl)-N^2-(1H-indol-5-yl)pyrimidine-2,4,5-triamine] | 2.84
Nc1cnc(Nc2ccc3cc[nH]c3c2)nc1NCc1ccc2[nH]ccc2c1 [Example 40, N^4-(1H-indol-5-ylmethyl)-N^2-(1H-indol-6-yl)pyrimidine-2,4,5-triamine] | 4.17
Cc1cc2cc(CNc3nccc(Nc4ccc5[nH]c(C)cc5c4)n3)ccc2[nH]1 [Example 63, N^4-(2-methyl-1H-indol-5-yl)-N^2-(2-methyl-1H-indol-5-ylmethyl)pyrimidine-2,4-diamine] | 0.59
Cc1cc2cc(Nc3ccnc(NCc4ccc5[nH]ncc5c4)n3)ccc2[nH]1 [Example 65, N^2-(1H-indazol-5-ylmethyl)-N^4-(2-methyl-1H-indol-5-yl)pyrimidine-2,4-diamine] | 0.92
COc1ccc2[nH]cc(CCNc3nccc(NCc4ccc5[nH]cnc5c4)n3)c2c1 [Example 69, N^4-(1H-benzo[d]imidazol-5-ylmethyl)-N^2-[2-(5-methoxy-1H-indol-3-yl)ethyl]pyrimidine-2,4-diamine] | < 10
Cc1cc2cc(Nc3ccnc(NCc4ccc5cc[nH]c5c4)n3)ccc2[nH]1 [Example 70, N^2-(1H-indol-6-ylmethyl)-N^4-(2-methyl-1H-indol-5-yl)pyrimidine-2,4-diamine] | < 10
COc1ccc2[nH]cc(CCNc3nccc(NCc4ccc5cc[nH]c5c4)n3)c2c1 [Example 71, N^4-(1H-indol-6-ylmethyl)-N^2-[2-(5-methoxy-1H-indol-3-yl)ethyl]pyrimidine-2,4-diamine] | < 10
c1ccc(COc2ccc3[nH]cc(CCNc4nccc(NCc5ccc6[nH]ccc6c5)n4)c3c2)cc1 [Example 72, N^4-(1H-indol-5-ylmethyl)-N^2-{2-[5-(benzyloxy)-1H-indol-3-yl]ethyl}pyrimidine-2,4-diamine] | < 10
c1cc(NCc2ccc3[nH]ccc3c2)nc(NCCc2c[nH]c3ccc(OCCN4CCOCC4)cc23)n1 [Example 73, N^4-(1H-indol-5-ylmethyl)-N^2-{2-[5-(2-morpholinoethoxy)-1H-indol-3-yl]ethyl}pyrimidine-2,4-diamine] | < 10
COCCOc1ccc2[nH]cc(CCNc3nccc(NCc4ccc5[nH]ccc5c4)n3)c2c1 [Example 74, N^4-(1H-indol-5-ylmethyl)-N^2-{2-[5-(2-methoxyethoxy)-1H-indol-3-yl]ethyl}pyrimidine-2,4-diamine] | < 10
Cn1ccc2c(Nc3nccc(NCc4ccc5[nH]ccc5c4)n3)cccc21 [Example 75, N^4-(1H-indol-5-ylmethyl)-N^2-(1-methyl-1H-indol-4-yl)pyrimidine-2,4-diamine] | 0.61
COC(=O)c1cc(Nc2nccc(NCc3ccc4[nH]ccc4c3)n2)c2cc[nH]c2c1 [Example 81, Methyl 4-[4-(1H-indol-5-ylmethylamino)pyrimidin-2-ylamino]-1H-indole-6-carboxylate] | < 10
c1cc(Nc2ccc3[nH]ccc3c2)nc(NCc2ccc3[nH]ccc3c2)n1 [Example 82, N^2-(1H-indol-5-ylmethyl)-N^4-(1H-indol-5-yl)pyrimidine-2,4-diamine] | 0.49
Cc1cc(Nc2ccc3[nH]c(C)cc3c2)nc(NCc2ccc3[nH]ccc3c2)n1 [Example 83, N^2-(1H-indol-5-ylmethyl)-6-methyl-N^4-(2-methyl-1H-indol-5-yl)pyrimidine-2,4-diamine] | < 10
COc1ccc2[nH]cc(CCNc3nc(Cc4ccccc4)cc(NCc4ccc5[nH]ccc5c4)n3)c2c1 [Example 85, N^4-(1H-indol-5-ylmethyl)-6-benzyl-N^2-[2-(5-methoxy-1H-indol-3-yl)ethyl]pyrimidine-2,4-diamine] | < 10
c1cc(Nc2ccc3[nH]cnc3c2)nc(NCc2ccc3[nH]ccc3c2)n1 [Example 95, N^2-(1H-indol-5-ylmethyl)-N^4-(1H-benzo[d]imidazol-5-yl)pyrimidine-2,4-diamine] | 0.9
Cc1nc2cc(Nc3ccnc(NCc4ccc5[nH]ccc5c4)n3)ccc2[nH]1 [Example 96, N^2-(1H-indol-5-ylmethyl)-N^4-(2-methyl-1H-benzo[d]imidazol-5-yl)pyrimidine-2,4-diamine] | 0.68
CNC(=O)c1cc(Oc2ccc(NC(=O)Nc3ccc(Cl)c(C(F)(F)F)c3)cc2)ccn1 [Ref. 1, sorafenib, reference compound] | 8.3
CCN(CC)CCNC(=O)c1c(C)[nH]c(/C=C2\C(=O)Nc3ccc(F)cc32)c1C [Ref. 2, sunitinib, reference compound] | 14.1
Cc1nc(Nc2ncc(C(=O)Nc3c(C)cccc3Cl)s2)cc(N2CCN(CCO)CC2)n1 [Ref. 3, dasatinib, reference compound] | 9.7
